# In patent US4800199A, “3-[2-thiazoloamino]-8-oxo-7-substituted-5-thia-1-a zabicyclo-[4.2.0]oct-2-ene-2-carboxylic acid and salts thereof and diphenylmethyl esters thereof” (American Cyanamid Company, priority 1986, dated 1989):
# Key:
# Assay in all cases: In vitro antibacterial activity, Mueller-Hinton agar dilution
# Assay type in all cases: cell-based
# [1] = system: Acinetobacter CMC 83-89; settings: CMC8389, read-out: Minimal Inhibitory Concentration
# Text: (§1) The results of this test on representative compounds of this invention appear in Table I.
# [2] = system: Acinetobacter IO 83-49; settings: IO8349, read-out: Minimal Inhibitory Concentration
# Text: as §1
# [3] = system: Bacillus subtilis ATCC 6633; settings: ATCC6633, read-out: Minimal Inhibitory Concentration
# Text: as §1
# [4] = system: Citrobacter diversis K83-24; settings: K8324, read-out: Minimal Inhibitory Concentration
# Text: as §1
# [5] = system: Citrobacter freundii IO 83-13; settings: IO8313, read-out: Minimal Inhibitory Concentration
# Text: as §1
# [6] = system: Enterobacter aerogenes IO 83-44; settings: Klebsiella aerogenes, IO8344, read-out: Minimal Inhibitory Concentration
# Text: as §1
# [7] = system: Enterobacter cloacae CMC 84-4; settings: CMC844, read-out: Minimal Inhibitory Concentration
# Text: as §1
# [8] = system: Enterococcus CMC 83-53; settings: CMC8353, read-out: Minimal Inhibitory Concentration
# Text: as §1
# [9] = system: Escherichia coli 311; settings: read-out: Minimal Inhibitory Concentration
# Text: as §1
# [10] = system: Escherichia coli ATCC 25922; settings: ATCC25922, read-out: Minimal Inhibitory Concentration
# Text: as §1
# [11] = system: Escherichia coli CMC 84-11; settings: CMC8411, read-out: Minimal Inhibitory Concentration
# Text: as §1
# [12] = system: Klebsiella oxytoca IO 83-1; settings: IO831, read-out: Minimal Inhibitory Concentration
# Text: as §1
# [13] = system: Klebsiella pneumoniae AD; settings: read-out: Minimal Inhibitory Concentration
# Text: as §1
# [14] = system: Klebsiella pneumoniae CMC 84-5; settings: CMC845, read-out: Minimal Inhibitory Concentration
# Text: as §1
# [15] = system: Micrococcus lutea PC 1001; settings: PC1001, read-out: Minimal Inhibitory Concentration
# Text: as §1
# [16] = system: Morganella morganii IO 83-18; settings: IO8318, read-out: Minimal Inhibitory Concentration
# Text: as §1
# [17] = system: Proteus rettgheri IO 83-21; settings: read-out: Minimal Inhibitory Concentration
# Text: as §1
# [18] = system: Providencia stuartii CMC 83-82; settings: CMC8382, read-out: Minimal Inhibitory Concentration
# Text: as §1
# [19] = system: Pseudomonas aeruginosa 12-4-4; settings: 1244, read-out: Minimal Inhibitory Concentration
# Text: as §1
# [20] = system: Pseudomonas aeruginosa ATCC 27853; settings: ATCC27853, read-out: Minimal Inhibitory Concentration
# Text: as §1
# [21] = system: Pseudonmonas aeruginosa CMC 83-19; settings: read-out: Minimal Inhibitory Concentration
# Text: as §1
# [22] = system: Serratia marcescens CMC 83-27; settings: CMC8327, read-out: Minimal Inhibitory Concentration
# Text: as §1
# [23] = system: Serratia marcescens F-35; settings: F35, read-out: Minimal Inhibitory Concentration
# Text: as §1
# [24] = system: Staphylococcus aureus ATCC 25923; settings: ATCC25923, read-out: Minimal Inhibitory Concentration
# Text: as §1
# [25] = system: Staphylococcus aureus SSC 82-20; settings: SSC8220, read-out: Minimal Inhibitory Concentration
# Text: as §1
# [26] = system: Staphylococcus aureus SSC 82-24; settings: SSC8224, read-out: Minimal Inhibitory Concentration
# Text: as §1
# [27] = system: Staphylococcus aureus SSC 82-26; settings: SSC8226, read-out: Minimal Inhibitory Concentration
# Text: as §1
# [28] = system: Staphylococcus aureus SSC 82-31; settings: SSC8231, read-out: Minimal Inhibitory Concentration
# Text: as §1
# [29] = system: Staphylococcus aureus SSC 82-57; settings: SSC8257, read-out: Minimal Inhibitory Concentration
# Text: as §1
# [30] = system: Staphylococcus epidermidis ATCC 12228; settings: ATCC12228, read-out: Minimal Inhibitory Concentration
# Text: as §1
# [31] = system: Staphylococcus epidermidis CMC 83-133; settings: CMC83133, read-out: Minimal Inhibitory Concentration
# Text: as §1
# [32] = system: Streptococcus faecalis ATCC 29212; settings: Enterococcus faecalis, ATCC29212, read-out: Minimal Inhibitory Concentration
# Text: as §1
Structure (SMILES),MIC [1],MIC [2],MIC [3],MIC [4],MIC [5],MIC [6],MIC [7],MIC [8],MIC [9],MIC [10],MIC [11],MIC [12],MIC [13],MIC [14],MIC [15],MIC [16],MIC [17],MIC [18],MIC [19],MIC [20],also measured
"CC(=O)OCC1=C(C(=O)O)N2C(=O)[C@@H](Nc3nc(C(=O)O)cs3)[C@H]2SC1 [Example 7, (6R-trans)-3-[(Acetyloxy)methyl]-7-[(4-carboxy-2-thiazolyl)amino]-8-oxo-5-thia-1-azabicyclo[4.2.0]oct-2-ene-2-carboxylic acid]",> 128 µg/mL,> 128 µg/mL,8 µg/mL,> 128 µg/mL,> 128 µg/mL,> 128 µg/mL,> 128 µg/mL,> 128 µg/mL,> 128 µg/mL,> 128 µg/mL,> 128 µg/mL,> 128 µg/mL,> 128 µg/mL,> 128 µg/mL,16 µg/mL,> 128 µg/mL,128 µg/mL,> 128 µg/mL,> 128 µg/mL,> 128 µg/mL,MIC [21]: > 128 µg/mL; MIC [22]: > 128 µg/mL; MIC [23]: > 128 µg/mL; MIC [24]: 8 µg/mL; MIC [25]: 16 µg/mL; MIC [26]: > 128 µg/mL; MIC [27]: 8 µg/mL; MIC [28]: 8 µg/mL; MIC [29]: 128 µg/mL; MIC [30]: 4 µg/mL; MIC [31]: 2 µg/mL; MIC [32]: > 128 µg/mL
"CC(=O)OCC1=C(C(=O)O)N2C(=O)[C@@H](Nc3nc(C(=O)OCC(Cl)(Cl)Cl)cs3)[C@H]2SC1 [Example 9, (6R-trans)-3-[(Acetyloxy)methyl]-8-oxo-7-[[4-[(2,2,2-trichloroethoxy)carbonyl]-2-thiazolyl]amino]-5-thia-1-azabicyclo[4.2.0]oct-2-ene-2-carboxylic acid]",> 128 µg/mL,> 128 µg/mL,0.5 µg/mL,> 128 µg/mL,> 128 µg/mL,> 128 µg/mL,> 128 µg/mL,64 µg/mL,> 128 µg/mL,> 128 µg/mL,> 128 µg/mL,> 128 µg/mL,> 128 µg/mL,> 128 µg/mL,1 µg/mL,> 128 µg/mL,64 µg/mL,> 128 µg/mL,> 128 µg/mL,> 128 µg/mL,MIC [21]: > 128 µg/mL; MIC [22]: > 128 µg/mL; MIC [23]: > 128 µg/mL; MIC [24]: 0.12 µg/mL; MIC [25]: 0.25 µg/mL; MIC [26]: > 128 µg/mL; MIC [27]: 0.12 µg/mL; MIC [28]: ≤ 0.06 µg/mL; MIC [29]: 128 µg/mL; MIC [30]: ≤ 0.06 µg/mL; MIC [31]: ≤ 0.06 µg/mL; MIC [32]: 16 µg/mL
"CC(=O)OCC1=C(C(=O)O)N2C(=O)[C@@H](Nc3nc(C(=O)NCc4ccccc4)cs3)[C@H]2SC1 [Example 11, (6R-trans)-3-[(Acetyloxy)methyl]-8-oxo-7-[[4-[[(phenylmethyl)amino]carbonyl]-2-thiazolyl]amino]-5-thia-1-azabicyclo[4.2.0]oct-2-ene-2-carboxylic acid]",> 128 µg/mL,> 128 µg/mL,8 µg/mL,> 128 µg/mL,> 128 µg/mL,> 128 µg/mL,> 128 µg/mL,> 128 µg/mL,> 128 µg/mL,> 128 µg/mL,> 128 µg/mL,> 128 µg/mL,> 128 µg/mL,> 128 µg/mL,8 µg/mL,> 128 µg/mL,> 128 µg/mL,> 128 µg/mL,> 128 µg/mL,> 128 µg/mL,MIC [21]: > 128 µg/mL; MIC [22]: > 128 µg/mL; MIC [23]: > 128 µg/mL; MIC [24]: 4 µg/mL; MIC [25]: 8 µg/mL; MIC [26]: > 128 µg/mL; MIC [27]: 4 µg/mL; MIC [28]: 4 µg/mL; MIC [29]: 128 µg/mL; MIC [30]: 2 µg/mL; MIC [31]: 2 µg/mL; MIC [32]: > 128 µg/mL
"CC(=O)OCC1=C(C(=O)O)N2C(=O)[C@@H](Nc3nc(C)cs3)[C@H]2SC1 [Example 12, (6R-trans)-3-[(Acetyloxy)methyl]-7-[(4-methyl-2-thiazolyl)amino]-8-oxo-5-thia-1-azabicyclo[4.2.0]oct-2-ene-2-carboxylic acid]",> 128 µg/mL,> 128 µg/mL,1 µg/mL,> 128 µg/mL,> 128 µg/mL,> 128 µg/mL,> 128 µg/mL,128 µg/mL,64 µg/mL,> 128 µg/mL,> 128 µg/mL,> 128 µg/mL,64 µg/mL,128 µg/mL,4 µg/mL,> 128 µg/mL,> 128 µg/mL,> 128 µg/mL,> 128 µg/mL,> 128 µg/mL,MIC [21]: > 128 µg/mL; MIC [22]: > 128 µg/mL; MIC [23]: > 128 µg/mL; MIC [24]: 4 µg/mL; MIC [25]: 4 µg/mL; MIC [26]: 64 µg/mL; MIC [27]: 4 µg/mL; MIC [28]: 4 µg/mL; MIC [29]: 128 µg/mL; MIC [30]: 2 µg/mL; MIC [31]: 2 µg/mL; MIC [32]: 128 µg/mL
